Source: US20130053434A1, “IRREVERSIBLE INHIBITORS USEFUL FOR THE TREATMENT OF KINASE-RELATED PATHOLOGIES” (CENTRE NATIONAL DE LA RECHERCHE SCIENTIFIQUE, priority 2009, published 2013)

Legend:
[1] = target: T1, VEGFR2 (Homo sapiens, UniProt P35968); test: cellular inhibition of VEGFR2; assay type: cell-based; details: triplicate
Method: FIG. 21. […] Assays were performed in triplicate.
To gage the undiscriminate reactivity of these enone resorcylic acids with thiols, fluoroenone 2 and the parent analogue lacking the fluoride were treated with one equivalent of DTT (2 mM) as a prototypical thiol nucleophile in PBS (pH 7.4) containing 1% DMSO. […] With fluoroenone 1 and 2 in hand, we tested their efficacy against VEGF-R2 which was frequently found to be the most inhibited kinase in our profile of cis-enone resorcylic acid library (Dakas, P. Y., et al. (2007) Angew. Chem. Int. Ed. Engl. 46, 6899-902; Jogireddy, R., et al. (2009) Chem. Eur. J. 15, 11498-506) and KIT which represents a less inhibited kinase. […] Their cellular activity against VEGF-R2 did parallel the biochemical activity. […] During the course of our investigation, a similar modification was reported by researchers from Esai (Du, H., et al. (2009) Bioorg. Med. Chem. Lett. 19, 6196-9) however, their medicinal chemistry efforts focused the inhibition of inflammation related pathways (MEKs and their down-stream regulatory effect on cytokines) (Du, H., et al. (2009) Bioorg. Med. Chem. Lett. 19, 6196-9; Goto, M., et al. (2009) J. Pharmacol. Exp. Ther. 331, 485-95). […]

[2] = isomerization of the enone under acid deprotection conditions; assay type: physicochemical; details: prolonged reaction times
Description: The synthesis commenced with the straightforward conversion of ester 5 into fluoroenal 7 via aldehyde 6 relying on a Horner-Wadsworth-Emmons reaction with triethyl 2-fluoro-2-phosphonoacetate to install the desired E-fluoroenoal (FIG. 19). Reaction of aldehyde 7 with […] afforded the desired alcohol as a 1:1 diasteromeric mixture which was reduced to the cis-alkene using Lindlar's catalyst (H2, Pd/CaCO3) to afford compound 9. As the hydroxyl group will ultimately be oxidized to the ketone, the lack of selectivity is inconsequential. Benzoyl protection of alcohol 9 thus afforded 10 wherein the terminal OPMB was converted to an iodide 11 (DDQ; I2, PPh3, imidazole). Attempts to engage this compound in alkylation chemistry with a phenol led to rapid elimination of the iodide to give a conjugated triene (product not shown). To circumvent this elimination which was thought to be facilitated by the presence of the alkene, compound 10 was dihydroxylated (2.5:1 dr in favor of the desired isomer 12) and converted to acetonide 13. Conversion of the terminal protected PMB ether into an iodide afforded the key intermediate 14. Following previously established chemistry, fragment 14 was coupled to the aromatic moiety 15 bearing a benzylic selenide by alkylation followed by oxidation/elimination of the selenide to afford 17. […]

[3] = target: T1, VEGFR2; test: biochemical inhibition of VEGF-R2; details: FIG. 20
Method: It should be noted that as these compounds are expected to be irreversible inhibitors, the measured IC50 will depend on the procedure used and caution should be applied in comparing data from experiments performed under different conditions. To obtain a value which best reflects the rate of inactivation, the substrate and inhibitor were added simultaneously to the kinase solution. The data is shown in FIG. 9 (kinases have been ranked from the highest to least inhibited). As evident from FIG. 9, there is very little difference in relative selectivity of kinase inhibition throughout the library under these conditions. […] Overall, the trend of structure activity relationship which emerged from this screen is that the chiral methyl group at the ester position, while not essential, does provide higher activity (entry 6 vs. 10, 7 vs. 11 and 8 vs. 12). Substitution at the adjacent position with a hydroxyl group (entry 14 vs. 7) or at the β-position of the enone with a methyl abrogated activity (15-19). […] The trend of activity for the three natural products can be ranked as follows: alkene=epoxide>alkane. […] The two modifications of R^2 tested were beneficial in certain combinations. For example, the extra hydroxyl group present in fragment i does afford a significant (10 fold) gain of activity (8 vs. 7) in combination with fragment a. […]

[4] = tested on: colon and lung tumors; details: mice bearing colon and lung tumors; cited from earlier work
[5] = target: ERK2 (Homo sapiens, UniProt P28482); details: covalent Michael adduct with cys166; cited from earlier work
[6] = in vivo; cited from earlier work
[7] = target: MEK1 (Homo sapiens, UniProt Q02750); details: cited from earlier work
[8] = reactivity with DTT as prototypical thiol nucleophile; assay type: physicochemical; details: one equivalent of DTT (2 mM), PBS pH 7.4, 1% DMSO
Method: To gage the undiscriminate reactivity of these enone resorcylic acids with thiols, fluoroenone 2 and the parent analogue lacking the fluoride were treated with one equivalent of DTT (2 mM) as a prototypical thiol nucleophile in PBS (pH 7.4) containing 1% DMSO. […] With fluoroenone 1 and 2 in hand, we tested their efficacy against VEGF-R2 which was frequently found to be the most inhibited kinase in our profile of cis-enone resorcylic acid library (Dakas, P. Y., et al. (2007) Angew. Chem. Int. Ed. Engl. 46, 6899-902; Jogireddy, R., et al. (2009) Chem. Eur. J. 15, 11498-506) and KIT which represents a less inhibited kinase. […] Their cellular activity against VEGF-R2 did parallel the biochemical activity. […] During the course of our investigation, a similar modification was reported by researchers from Esai (Du, H., et al. (2009) Bioorg. Med. Chem. Lett. 19, 6196-9) however, their medicinal chemistry efforts focused the inhibition of inflammation related pathways (MEKs and their down-stream regulatory effect on cytokines) (Du, H., et al. (2009) Bioorg. Med. Chem. Lett. 19, 6196-9; Goto, M., et al. (2009) J. Pharmacol. Exp. Ther. 331, 485-95). […] It was further shown that the addition of a methyl substituent at the δ position to the enone enhanced the metabolic stability with a tolerable loss of activity (10 fold) (Du, H., et al. (2009) Bioorg. Med. Chem. Lett. 19, 6196-9). […]

[9] = tested on: orthotopically implanted RENCA-LN cells; test: orthotopic murine renal cell carcinoma (RENCA) model, in vivo efficacy; details: for tumor growth by bioluminescence and primary tumor volume: 20 mg/kg i.p.
Method: RENCA-LN cells were obtained and cultured as described above. Sixty female BALB/c mice of 5 to 6 weeks were orthotopically implanted RENCA-LN cells into the left kidney (4×10^5 cells in 25 μl aliquots into the subcapsular space through a flank incision, Day 0). The mice were randomly divided into 5 groups of 12 mice each. On day 2, therapy was initiated. Animals in the vehicle control group (group 1) received 10 ml/kg Vehicle (PBS w/o Ca/Mg, 10% DMSO, 40% PEG-300) i.p. once daily until day 19. Animals of positive control group (group 2) received 40 mg/kg Sunitinib (Sutent®) p.o. once daily until day 20. Animals of treatment group 3 and 4 received 20 mg/kg of 3 once daily and every other day respectively (i.p.). Animals of treatment group 5 received 20 mg/kg of 5 once daily (i.p.). Due to partial weight loss, therapy in Groups 3 and 5 was suspended on days 11 and 12 and stopped on day 17. On day 20, the study was terminated and a necropsy performed. All animals were weighted, anaesthetised by isoflurane and killed by exsanguination. Two animals in group 1 were found dead on day 19 and 1 animal in group 3 and 5 on day 11 and 9 respectively. At necropsy, primary tumor weight and volume, lung weight and number of lung metastases were determined. Primary tumor tissues were collected and divided into two parts. One part of each tumor was snap-frozen in liquid nitrogen and stored at −80° C. whereas the other part was analyzed via ex vivo bioluminescence imaging. During the course of the study, the growth of the orthotopically implanted RENCA tumors was monitored on days 7, 14 and 19 using in vivo bioluminescence imaging. For this purpose, luciferin was injected intraperitoneally (i.p.) into the mice and light emission was measured post injection (10 min) using a NightOWL LB 981 bioluminescence imaging system (Berthold Technologies, Germany). The migration of RENCA tumor cells into the lung (metastasis) was analyzed post necropsy by counting nodules and using the luciferase assay. For this purpose, lungs were collected, homogenized, and assayed for luciferase activity using the kit from Promega (E1501) according to the manufacturer's instructions. Protein concentrations were determined using a Bradford assay and used to normalize luciferase activities (except for the primary tumor). A histological examination of the tumor vasculature was performed. For this purpose, cryosections of primary tumor tissues (thickness=5-10 μm) from the snap-frozen portion of the organ and blood vessels were visualized by immunohistochemical staining for CD 31 (PECAM-1; PharMingen, San Diego, Calif.). […] Statistical analysis of efficacy data was done using the Mann Whitney test.

[10] = plasma half-life; assay type: in vitro ADME
[11] = tested on: VEGFRs; test: KinomeScan kinase selectivity profile (50 kinases): VEGFRs; assay type: binding; details: 1 μM
Description: The selectivity profile was measure using the KinomeScan™ technology (http://www.kinomescan.com/) based on active-site dependent competition binding assay (Karaman, M. W., et al. (2008) Nat. Biotechnol. 26, 127-32; Fabian, M. A., et al. (2005) Nat. Biotechnol. 23, 329-36). Compounds 3 and 5 were profiled against a panel of 50 kinases including 42 kinases from the group of 48 kinases predicted by Santi et al. (Schirmer, A., et al. (2006) Proc. Natl. Acad. Sci. USA 103, 4234-9) to be targeted by hypothemycin and 5 mutants of FLT3 as well as 3 mutants of KIT. Both compounds were assayed at 1 μM. The results are expressed as a percentage of signal between a negative (DMSO) and positive (know binder) control [(test compound−positive control)/([…])×100].

[12] = dose finding study; assay type: in vivo
Description: (§1) As a bench mark, the natural product LL Z-1640-2 was also included in the assay. […] Compound 3 and 5 were selected as prototypical examples of modified RALs for further investigations. As described in the method section, both of these compounds derived from a common synthetic intermediate and can be readily prepared in gram quantities. […] Primary tumor weight confirmed these observations. A key objective of this study was to measure the effect of these compounds on metastasis. Upon termination of the study, the lungs were inspected for metastatic nodules and the ex-vivo luciferase activity of lung homogenates was measured. […] It should be noted that these compounds were also shown to inhibit the inflammation pathways which have been implicated in facilitating metastasis.

[13] = tested on: RENCA-LN cells; test: RENCA cell proliferation assay; assay type: cell-based, Murine
Method: Murine RENCA cells were originally obtained from a tumor that arose spontaneously in the kidney of BALB/c mice. Histologically, RENCA consists of granular cell type adenocarcinoma, which is pleomorphic with large nuclei. To obtain RENCA-LN, RENCA cells were transduced using a retrovirus encoding a luciferase-neomycin fusion protein and selected using 1 mg/ml G418. RENCA-LN cells were plated with 1.500 cells/150 μl/well in DMEM supplemented with 10% FCS in 96 well culture dishes. The following day the serial diluted test samples (from 1 mM to 0.1 μM in DMSO) were mixed with medium (1:25) and 50 μl of the mix was added to each well of the cultured cells (1:4) resulting in a final DMSO concentration of 1%. Cells were grown for 72 h at 10% CO2 and 37° C. After 72 h RENCA-LC cells were lysed in 100 μL luciferase assay buffer, and 10 μl of the lysate was assayed for luciferase activity. The mean value of the low controls of each 96 well cell culture plate represents the background which was subtracted from all other data points of the respective plate. Raw data were converted into percent proliferation relative to the high control, which were set to 100%. […] determination was done with GraphPad Prism 5.01 software with constrain of bottom to 0 and top to 100 using a nonlinear regression curve fit with variable hill slope. The equation is a four-parameter logistic equation. […]

[14] = solubility in aqueous buffers; assay type: physicochemical; details: compared with 5
Description: as §1

T1 sequence (P35968 20-1356, species assumed): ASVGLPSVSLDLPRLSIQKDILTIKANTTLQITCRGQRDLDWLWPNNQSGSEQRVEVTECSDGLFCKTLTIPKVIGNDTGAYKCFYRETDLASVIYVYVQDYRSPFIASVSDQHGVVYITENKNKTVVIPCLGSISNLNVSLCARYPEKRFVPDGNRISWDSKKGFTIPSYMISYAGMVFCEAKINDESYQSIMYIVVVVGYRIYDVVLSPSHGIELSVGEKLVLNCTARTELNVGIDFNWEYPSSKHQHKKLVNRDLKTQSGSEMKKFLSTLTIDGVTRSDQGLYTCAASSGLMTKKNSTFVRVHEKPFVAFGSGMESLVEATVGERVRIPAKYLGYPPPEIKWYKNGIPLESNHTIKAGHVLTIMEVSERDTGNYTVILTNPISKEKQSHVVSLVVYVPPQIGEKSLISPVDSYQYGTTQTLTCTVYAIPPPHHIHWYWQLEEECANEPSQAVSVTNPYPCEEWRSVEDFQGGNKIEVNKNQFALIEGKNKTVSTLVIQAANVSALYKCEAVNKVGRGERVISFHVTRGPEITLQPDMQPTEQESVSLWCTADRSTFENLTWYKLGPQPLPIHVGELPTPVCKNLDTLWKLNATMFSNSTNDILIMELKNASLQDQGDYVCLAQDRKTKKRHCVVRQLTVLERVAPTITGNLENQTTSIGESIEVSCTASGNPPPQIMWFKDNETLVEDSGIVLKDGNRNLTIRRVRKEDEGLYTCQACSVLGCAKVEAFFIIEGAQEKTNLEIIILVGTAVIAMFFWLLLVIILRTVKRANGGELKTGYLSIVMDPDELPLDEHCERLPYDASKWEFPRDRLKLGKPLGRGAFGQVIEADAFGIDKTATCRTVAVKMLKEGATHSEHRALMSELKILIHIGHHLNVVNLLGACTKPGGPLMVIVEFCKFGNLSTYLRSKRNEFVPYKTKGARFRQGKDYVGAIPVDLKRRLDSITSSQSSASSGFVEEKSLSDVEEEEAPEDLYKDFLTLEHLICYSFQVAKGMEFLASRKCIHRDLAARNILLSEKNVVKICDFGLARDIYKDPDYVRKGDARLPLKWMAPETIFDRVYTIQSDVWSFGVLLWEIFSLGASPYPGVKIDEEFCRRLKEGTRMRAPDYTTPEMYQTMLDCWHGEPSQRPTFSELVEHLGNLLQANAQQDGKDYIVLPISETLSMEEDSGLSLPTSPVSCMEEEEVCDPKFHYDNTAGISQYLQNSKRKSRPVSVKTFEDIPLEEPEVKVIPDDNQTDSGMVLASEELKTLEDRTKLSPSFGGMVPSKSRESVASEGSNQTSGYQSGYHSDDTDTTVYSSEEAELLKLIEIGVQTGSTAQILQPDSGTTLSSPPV
ERK2, sequence (P28482 whole entry, species assumed): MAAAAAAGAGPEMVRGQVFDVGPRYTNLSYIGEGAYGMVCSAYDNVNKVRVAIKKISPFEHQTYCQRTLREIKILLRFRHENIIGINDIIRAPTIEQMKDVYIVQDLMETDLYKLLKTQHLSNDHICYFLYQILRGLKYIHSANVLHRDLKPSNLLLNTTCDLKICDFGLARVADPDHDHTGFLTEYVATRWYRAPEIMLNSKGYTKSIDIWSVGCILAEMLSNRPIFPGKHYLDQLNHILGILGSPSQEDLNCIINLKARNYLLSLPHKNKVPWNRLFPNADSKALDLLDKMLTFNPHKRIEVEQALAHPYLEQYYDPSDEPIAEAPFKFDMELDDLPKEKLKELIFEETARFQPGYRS
MEK1, sequence (Q02750 whole entry): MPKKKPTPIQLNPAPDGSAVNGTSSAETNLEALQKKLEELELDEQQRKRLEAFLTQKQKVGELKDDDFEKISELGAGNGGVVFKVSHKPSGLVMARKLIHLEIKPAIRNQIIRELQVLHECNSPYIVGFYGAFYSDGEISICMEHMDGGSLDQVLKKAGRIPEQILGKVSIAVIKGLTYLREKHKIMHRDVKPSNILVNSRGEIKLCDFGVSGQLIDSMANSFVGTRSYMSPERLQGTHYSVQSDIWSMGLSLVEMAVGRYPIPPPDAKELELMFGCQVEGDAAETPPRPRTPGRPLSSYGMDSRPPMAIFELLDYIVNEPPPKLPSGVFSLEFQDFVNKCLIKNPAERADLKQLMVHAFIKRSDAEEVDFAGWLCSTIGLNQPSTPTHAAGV

## C[C@H]1C/C=C(/F)C(=O)[C@@H](O)[C@@H](O)C/C=C/c2cc(O)cc(O)c2C(=O)O1 [fluoroenone 1]
[1]
  IC50: 17 nM
[2]
  isomerization (epimerization) of the fluoroenone: no trace of isomerization was observed
[3]
  IC50: 6.8 nM

## COc1cc(O)c2c(c1)[C@H]1O[C@@H]1C[C@H](O)[C@H](O)C(=O)/C=C\C[C@H](C)OC2=O [hypothemycin]
[4]
  tumor growth inhibition: only modest growth inhibition
[5]
  inactivation of ERK2: irreversibly inactivates ERK2
[6]
  efficacy in animal models: effective in animal models

## CCNc1cc(O)c2c(c1)/C=C/C[C@H](O)[C@H](O)C(=O)/C=C\[C@@H](C)[C@H](C)OC2=O [E6201]
[7]
  selectivity for MEK1 relatively to PDGFRβ: > 200 fold

## C[C@H]1C/C=C(/F)C(=O)[C@@H](O)[C@@H](O)CCOc2cc(O)cc(O)c2C(=O)O1 [fluoroenone 2]
[8]
  reactivity with DTT compared with parent analogue lacking the fluoride: reacting slower
[3]
  IC50: 60.5 nM

## C[C@H]1C/C=C\C(=O)[C@@H](O)[C@@H](O)CCOc2cc(O)cc(O)c2C(=O)O1 [1agh]
[9]; 20 mg, q1d
  tumor vasculature histology (CD-31 staining), angiogenesis: strong inhibition of angiogenesis
[9]; 20 and 10 mg/kg
  tumor growth in mice: clear reduction in tumor growth
[9]; administered every other day
  tumor growth by bioluminescence and primary tumor volume: marginal decrease activity
[9]; between day 2 and day 5, q1d
  animal weights decrease: 8%
[9]; compared with untreated group, lungs inspected at termination
  lung metastasis (metastatic nodules): A similar result
[9]; daily dosing
  tumor growth by bioluminescence and primary tumor volume: highly significant reduction of tumor growth
[9]; ex vivo, compared with untreated group
  luciferase activity from lung homogenates: A similar result
[10]
  plasma half-life: short plasma half life
[11]
  inhibition of VEGFRs in kinase profile: strongly inhibited
[12]; 25 mg/kg
  tolerability: tolerated
[12]; 75 mg/kg
  toxicity at high dose: systemic toxicity
[13]; FIG. 14
  efficacy in inhibiting renal carcinoma cell line compared with natural product LL Z-1640-2: as effective as the natural product
[13]; Mus musculus, Renca, FIG. 12, read-out: IC50, renal carcinoma line (RENCA)
  IC50: 100 to 500 nM
[14]
  solubility in aqueous buffers: notably more soluble in aqueous buffers than 5
